# Patent US6696433B2, “Use of sex steroids function modulators to treat wounds and fibrotic disorders” (Renovo Limited, priority 1996, dated 2004)
# Marks after values point to notes of the source that are not given here.
# Tests used:
# [1] = system: TGF-β1 secreted by dermal fibroblasts; assay: TGF-β levels in fibroblast conditioned media, mink lung cell growth inhibition assay; assay type: cell-based, human; conditions: for TGF-beta LEVELS: 24 hr; for active TGF-β1 (non-heat-activated samples): fibroblast conditioned media after 24 hr treatment, compared to control; for FOLD INDUCTION of TGF-beta levels: relative to control
# Method: (§1) Human dermal fibroblasts were explanted from the 4 mm punch biopsy specimens of normal skin. Fibroblasts used in the study were cultured at 37° C. in 95% air; 5% CO2 at 100% relative humidity, in phenol red-free DMEM (Gibco), 100 U/ml penicillin, […], 1 mM sodium pyruvate, 2 mM L-glutamine, non-essential amino acids and charcoal-stripped 10% FCS (Gibco, UK) (to remove endogenous steroids).
# (§2) Cultured cells at passage 3-5 were seeded overnight in 24-well plates at a density of 2×10^5 cells per well in serum free media. The following morning oestrogen or progesterone (made soluble by the incorporation of the carrier cyclodextrin; Sigma, Poole), ranging from 1 pM to 1 mM doses, were added to the medium for 24 hrs. All samples were assessed in triplicate. The media was removed after the 24 hr incubation. 1 mg/ml of aprotinin, leupeptin and pepstatin A was then added to the media which was used immediately in a TGF-β assay (see below). Controls included cyclodextrin at the appropriate concentration, and serum-free medium alone.
# TGF-β levels in the media (2.1.5.2) were determined using a mink lung growth inhibition assay as described by Danielpour et al, (J Cell Physiol, 138 p79-86) Briefly, mink lung epithelial cells (MLECs) were maintained in DMEM and 10% FCS at 37° C. in 10% CO2. Subconfluent cells were trypsinized, resuspended in 10% FCS, pelleted at 500 g for 5 min, washed with 10 ml of assay buffer (DMEM, 2% FCS, 10 mM HEPES pH 7.4, penicillin 25 U/ml, streptomycin 25 μg/ml), resuspended in assay buffer and seeded at 10^5 cells/well in a 24-well Costar plate. After 1 hr conditioned media or control media (with varying concentrations of hormones ranging from 1 pM-1 mM or cyclodextrin alone) were added, 22 hrs later cells were pulsed with [^3H] thymidine (0.5 μCi/well) for 2 hrs at 37° C., and the procedure described above for the extraction and measurement of radioactivity followed (2.1.5.3). A standard curve was produced using 10-1000 pg/ml TGF-β standard (R&D) from which inhibition data could be converted to pg/ml. Results were presented as pg/ml TGF-β/10^5 cells (relative to control valves for each individual hormone concentration).
# Human dermal fibroblasts = assay: Fibroblast proliferation, [3H] thymidine incorporation; assay type: cell-based; conditions: for proliferation of fibroblasts: doses 1 pM to 1 mM, 24 hrs, fibroblasts from young and aged subjects, compared to cyclodextrin controls
# Method: as §1, §2
# The cells were then incubated with [^3H] thymidine in serum-free medium (0.5 μCi/well) to assess the effect of oestrogen or progesterone on fibroblast proliferation. After 24 hrs, the thymidine solution was aspirated and replaced by 10% TCA for 4 hrs at 4° C. The TCA was replaced by 250 μls 1M NaOH solution for 18 hrs. Two 100 μl aliquots from each well were measured for radioactivity in a scintillation counter. In parallel experiments, the effect of hormones/controls on protein synthesis was investigated by the addition of 20 μg/ml cycloheximde (to inhibit protein translation) for 15 mins prior to the 24 hr incubation period.
# TGF-β1 mRNA = assay: Dermal fibroblast TGF-β1 mRNA levels by quantitative RT-PCR; assay type: cell-based, human
# Method: as §1, §2
# Quantitative RT-PCR was used to determine the steady-state levels of TGF-β1 mRNA in the acute wound and in 10^5 cells from the fibroblast in vitro studies (2.1.5) Cellular RNA was isolated from specimens using the method of Chomcynski and Sacchi (Anal, Biochem, 162 p156-159 (1987)). Purity of extraction was assessed using the A260/280 ratio spectrophotometrically, which in all cases was above 1.75. […] Quantitative RT-PCR was performed as described by Tarnuzzer et al. (Biotechniques 20 p670-674 (1996)) Briefly, the reverse transcriptase reaction was carried out using 8 decreasing dilutions of template with 1 μg of authentic cellular RNA. β-actin was used as a positive control. PCR reactions were carried out on the reverse transcription reaction. Electrophoresis was then carried out on a 2% agarose gel containing […] ethidium bromide at 100 v for 1 hr using an Electro 4 tank (Hybaid, Teddington, UK) and photographed using a dual intensity transilluminator (Genetic Research instrumentation, Dunmow (UK) with a Polaroid MP 4+ camera and 665 Polaroid Black and White film, Photographic images were captured using a PC Image Software system (Foster Finley, Newcastle, UK) on a 486 DX2 Dan computer (Dan, UK) and a CCD camera (Swift, UK). The band intensities were determined by image analysis using a Macintosh computer and NIH software programme. Band intensity values were normalised based on the molecular weights of the products. The log of the ratio of band intensities within each lane was plotted against the log of the copy number of template added per reaction. Quantities of target messages were determined where the ratio of template and target band intensities were equal to 1. Copy numbers were expressed per total RNA (for wound tissue) or expressed per cell (for in vitro studies). The latter were calculated by assuming 26 pg RNA/cell.
# [2] = OLD person (2A or 2B) fibroblasts, mM dose
# [3] = OLD person (2A or 2B) fibroblasts, nM dose
# [4] = OLD person (2A or 2B) fibroblasts, pM dose
# [5] = OLD person (2A or 2B) fibroblasts, μM dose
# [6] = YOUNG person (2C) fibroblasts, mM dose
# [7] = YOUNG person (2C) fibroblasts, nM dose
# [8] = YOUNG person (2C) fibroblasts, pM dose
# [9] = YOUNG person (2C) fibroblasts, μM dose
smiles,measurement,setting,value
C[C@]12CC[C@@H]3c4ccc(O)cc4CC[C@H]3[C@@H]1CC[C@@H]2O [Oestrogen],TGF-beta LEVELS,[1]; [2],416 ± 80 pg/ml/10^5 cell/24 hr
same,TGF-beta LEVELS,[1]; [3],280 ± 60 pg/ml/10^5 cell/24 hr
same,TGF-beta LEVELS,[1]; [4],80 ± 50 pg/ml/10^5 cell/24 hr
same,TGF-beta LEVELS,[1]; [5],315 ± 47 pg/ml/10^5 cell/24 hr
same,TGF-beta LEVELS,[1]; [6],428 ± 58 pg/ml/10^5 cell/24 hr
same,TGF-beta LEVELS,[1]; [7],312 ± 30 pg/ml/10^5 cell/24 hr
same,TGF-beta LEVELS,[1]; [8],118 ± 24 pg/ml/10^5 cell/24 hr
same,TGF-beta LEVELS,[1]; [9],282 ± 22 pg/ml/10^5 cell/24 hr
same,active TGF-β1 (non-heat-activated samples),[1],no increase
same,proliferation of fibroblasts,Human dermal fibroblasts,inhibited
same,TGF-beta mRNA LEVELS,TGF-β1 mRNA; [2],990 ± 325 copies/cell
same,TGF-beta mRNA LEVELS,TGF-β1 mRNA; [3],1100 ± 370 copies/cell
same,TGF-beta mRNA LEVELS,TGF-β1 mRNA; [4],1155 ± 215 copies/cell
same,TGF-beta mRNA LEVELS,TGF-β1 mRNA; [5],1100 ± 235 copies/cell
same,TGF-beta mRNA LEVELS,TGF-β1 mRNA; [6],1250 ± 188 copies/cell
same,TGF-beta mRNA LEVELS,TGF-β1 mRNA; [7],1300 ± 272 copies/cell
same,TGF-beta mRNA LEVELS,TGF-β1 mRNA; [8],1190 ± 300 copies/cell
same,TGF-beta mRNA LEVELS,TGF-β1 mRNA; [9],1180 ± 130 copies/cell
same,"TGF-β1 mRNA levels, control versus treated fibroblasts","TGF-β1 mRNA; varying concentrations of oestrogen, fibroblasts from all females regardless of age",No significant differences
"CC(=O)[C@H]1CC[C@H]2[C@@H]3CCC4=CC(=O)CC[C@]4(C)[C@H]3CC[C@]12C [Progesterone, progesterone]",TGF-beta LEVELS,[1]; [2],33 ± 13 pg/ml/10^5 cell/24 hr
same,FOLD INDUCTION of TGF-beta levels,[1]; [2],1
same,TGF-beta LEVELS,[1]; [3],90 ± 38 pg/ml/10^5 cell/24 hr
same,FOLD INDUCTION of TGF-beta levels,[1]; [3],2.6*
same,TGF-beta LEVELS,[1]; [4],32 ± 13 pg/ml/10^5 cell/24 hr
same,FOLD INDUCTION of TGF-beta levels,[1]; [4],1
same,TGF-beta LEVELS,[1]; [5],65 ± 15 pg/ml/10^5 cell/24 hr
same,FOLD INDUCTION of TGF-beta levels,[1]; [5],2*
same,TGF-beta LEVELS,[1]; [6],82 ± 13 pg/ml/10^5 cell/24 hr
same,FOLD INDUCTION of TGF-beta levels,[1]; [6],0.8
same,TGF-beta LEVELS,[1]; [7],115 ± 20 pg/ml/10^5 cell/24 hr
same,FOLD INDUCTION of TGF-beta levels,[1]; [7],1
same,TGF-beta LEVELS,[1]; [8],70 ± 31 pg/ml/10^5 cell/24 hr
same,FOLD INDUCTION of TGF-beta levels,[1]; [8],0.6
same,TGF-beta LEVELS,[1]; [9],96 ± 13 pg/ml/10^5 cell/24 hr
same,FOLD INDUCTION of TGF-beta levels,[1]; [9],1
same,active TGF-β1 (non-heat-activated samples),[1],no increase
same,increase in TGF-β1 levels,"[1]; nM and μM doses, fibroblasts from the aged subjects (2A or 2B)",2 fold
same,effect on TGF-β1 production compared to controls,[1]; young fibroblasts (Group 2C),no significant effect
same,degree of inhibition of fibroblast proliferation relative to oestrogen,"Human dermal fibroblasts; at 1 mM, p<0.05",significantly greater degree than oestrogen
same,proliferation of fibroblasts,Human dermal fibroblasts,inhibited
same,TGF-beta mRNA LEVELS,TGF-β1 mRNA; [2],1300 ± 430 copies/cell
same,TGF-beta mRNA LEVELS,TGF-β1 mRNA; [3],1000 ± 275 copies/cell
same,TGF-beta mRNA LEVELS,TGF-β1 mRNA; [4],950 ± 210 copies/cell
same,TGF-beta mRNA LEVELS,TGF-β1 mRNA; [5],1110 ± 290 copies/cell
same,TGF-beta mRNA LEVELS,TGF-β1 mRNA; [6],1100 ± 310 copies/cell
same,TGF-beta mRNA LEVELS,TGF-β1 mRNA; [7],1145 ± 206 copies/cell
same,TGF-beta mRNA LEVELS,TGF-β1 mRNA; [8],1130 ± 254 copies/cell
same,TGF-beta mRNA LEVELS,TGF-β1 mRNA; [9],1090 ± 280 copies/cell
